Measured values: ChEMBL document CHEMBL4431388, “Molecular docking studies and synthesis of novel bisbenzimidazole derivatives as inhibitors of α-glucosidase” (Bioorg Med Chem, 2016)

Tests used:
[1] = Inhibition of baker's yeast alpha-glucosidase using p-nitrophenyl alpha-D-glucopyranoside as substrate preincubated for 15 mins followed by substrate addition measured for 20 mins by spectrophotometric analysis; parameters: species or system Saccharomyces cerevisiae
Saccharomyces cerevisiae = assay: Inhibition of baker's yeast alpha-glucosidase at 300 uM using p-nitrophenyl alpha-D-glucopyranoside as substrate preincubated for 15 mins followed by substrate addition measured for 20 mins by spectrophotometric analysis relative to control

| IC50 [1] [nM] | inhibition (Saccharomyces cerevisiae) [%] | Compound |
| --- | --- | --- |
| 440 | 100 | NNC(=O)Cn1c(-c2nc3ccc([N+](=O)[O-])cc3n2CC(=O)NN)nc2ccc([N+](=O)[O-])cc21 |
| – | 23.2 | O=C(Cn1c(-c2nc3ccccc3n2CC(=O)NNC(=S)NCc2ccccc2)nc2ccccc21)NNC(=S)NCc1ccccc1 |
| 1240 | 100 | O=C(Cn1c(-c2nc3ccc([N+](=O)[O-])cc3n2CC(=O)NNC(=S)Nc2ccccc2)nc2ccc([N+](=O)[O-])cc21)NNC(=S)Nc1ccccc1 |
| – | 42.7 | c1ccc(Nc2nnc(Cn3c(-c4nc5ccccc5n4Cc4nnc(Nc5ccccc5)s4)nc4ccccc43)s2)cc1 |
| 490 | 100 | O=C(Cn1c(-c2nc3ccc([N+](=O)[O-])cc3n2CC(=O)NNC(=S)NCc2ccccc2)nc2ccc([N+](=O)[O-])cc21)NNC(=S)NCc1ccccc1 |
| – | 39.6 | O=C(Cn1c(-c2nc3ccccc3n2CC(=O)NNC(=S)Nc2ccccc2)nc2ccccc21)NNC(=S)Nc1ccccc1 |
| – | 45.8 | NNC(=O)Cn1c(-c2nc3ccccc3n2CC(=O)NN)nc2ccccc21 |
| 6690 | 85.8 | CCOC(=O)Cn1c(-c2nc3ccc([N+](=O)[O-])cc3n2CC(=O)OCC)nc2ccc([N+](=O)[O-])cc21 |

The remaining lines, values behind:

| Compound | IC50 [1] [nM] | inhibition (Saccharomyces cerevisiae) [%] |
| --- | --- | --- |
| O=[N+]([O-])c1ccc2nc(-c3nc4ccc([N+](=O)[O-])cc4[nH]3)[nH]c2c1 | 540 | 100 |
| Sc1nnc(Cn2c(-c3nc4ccccc4n3Cc3nnc(S)n3-c3ccccc3)nc3ccccc32)n1-c1ccccc1 | 3010 | 100 |
| O=[N+]([O-])c1ccc2nc(-c3nc4ccc([N+](=O)[O-])cc4n3Cc3nnc(Nc4ccccc4)s3)n(Cc3nnc(Nc4ccccc4)s3)c2c1 | 5270 | 89.1 |
| O=[N+]([O-])c1ccc2nc(-c3nc4ccc([N+](=O)[O-])cc4n3Cc3nnc(S)n3Cc3ccccc3)n(Cc3nnc(S)n3Cc3ccccc3)c2c1 | – | 35.8 |
| O=[N+]([O-])c1ccc2nc(-c3nc4ccc([N+](=O)[O-])cc4n3Cc3nnc(S)n3-c3ccccc3)n(Cc3nnc(S)n3-c3ccccc3)c2c1 | – | 23.7 |
| C[C@H]1O[C@H](O[C@H]2[C@H](O)[C@@H](O)[C@@H](O[C@H]3[C@H](O)[C@@H](O)C(O)O[C@@H]3CO)O[C@@H]2CO)[C@H](O)[C@@H](O)[C@@H]1N[C@H]1C=C(CO)[C@@H](O)[C@H](O)[C@H]1O (stereo partly drawn) [ACARBOSE] | 13300 | 83.3 |
| O=[N+]([O-])c1ccc2nc(-c3nc4ccc([N+](=O)[O-])cc4n3Cc3nnc(NCc4ccccc4)s3)n(Cc3nnc(NCc4ccccc4)s3)c2c1 | – | 48.4 |
